Test results as given in ChEMBL document CHEMBL3352541, “1-Phenylsulfinyl-3-(pyridin-3-yl)naphthalen-2-ols: a new class of potent and selective aldosterone synthase inhibitors” (Eur J Med Chem, 2015).

Experiments:
[1] = molecular target: T1, Cytochrome P450 11B2, mitochondrial (Homo sapiens, UniProt P19099); format: cell-based; settings: V79MZ, 1 h
T1 sequence (P19099 whole entry): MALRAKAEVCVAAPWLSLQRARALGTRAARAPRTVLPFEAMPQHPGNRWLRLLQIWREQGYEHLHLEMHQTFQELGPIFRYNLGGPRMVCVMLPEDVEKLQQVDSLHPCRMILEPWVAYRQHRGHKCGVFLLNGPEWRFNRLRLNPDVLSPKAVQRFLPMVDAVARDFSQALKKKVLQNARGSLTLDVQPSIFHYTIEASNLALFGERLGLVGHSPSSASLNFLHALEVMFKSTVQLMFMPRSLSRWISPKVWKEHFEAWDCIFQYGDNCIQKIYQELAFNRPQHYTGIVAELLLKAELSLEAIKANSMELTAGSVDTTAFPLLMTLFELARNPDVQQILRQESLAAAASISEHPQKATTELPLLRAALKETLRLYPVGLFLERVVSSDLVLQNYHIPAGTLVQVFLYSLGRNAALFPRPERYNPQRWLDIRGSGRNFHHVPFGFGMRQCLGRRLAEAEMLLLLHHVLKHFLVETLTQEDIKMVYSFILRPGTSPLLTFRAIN

V79MZ = test: Selectivity ratio of IC50 for human CYP11B1 expressed in hamster V79MZ cells to IC50 for human CYP11B2 expressed in hamster V79MZ cells; format: cell-based
CYP17 = molecular target: T2, CYP17 (Homo sapiens, UniProt P05093); test: Inhibition of human recombinant CYP17 expressed in Escherichia coli using progesterone as substrate at 2 uM; settings: probe progesterone
T2 sequence (P05093 whole entry): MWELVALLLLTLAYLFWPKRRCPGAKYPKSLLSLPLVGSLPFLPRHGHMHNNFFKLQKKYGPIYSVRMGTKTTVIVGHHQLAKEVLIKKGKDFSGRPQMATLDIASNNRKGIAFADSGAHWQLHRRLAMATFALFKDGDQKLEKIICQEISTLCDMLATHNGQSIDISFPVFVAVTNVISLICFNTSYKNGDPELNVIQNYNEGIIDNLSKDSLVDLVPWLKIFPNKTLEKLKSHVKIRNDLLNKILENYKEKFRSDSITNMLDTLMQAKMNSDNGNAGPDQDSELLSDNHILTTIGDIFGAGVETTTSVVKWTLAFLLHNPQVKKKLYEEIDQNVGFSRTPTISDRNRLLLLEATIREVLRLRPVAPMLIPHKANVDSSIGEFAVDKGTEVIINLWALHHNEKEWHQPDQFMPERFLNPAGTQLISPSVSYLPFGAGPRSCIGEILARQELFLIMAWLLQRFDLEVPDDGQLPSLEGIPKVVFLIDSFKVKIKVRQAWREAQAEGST

CYP19 (aromatase) = molecular target: T3, CYP19 (aromatase) (Homo sapiens, UniProt P11511); test: Inhibition of human recombinant CYP19 using [1beta3H]androstenedione as substrate at 500 nM; settings: recombinant human CYP19, probe [1beta3H]androstenedione
T3 sequence (P11511 whole entry): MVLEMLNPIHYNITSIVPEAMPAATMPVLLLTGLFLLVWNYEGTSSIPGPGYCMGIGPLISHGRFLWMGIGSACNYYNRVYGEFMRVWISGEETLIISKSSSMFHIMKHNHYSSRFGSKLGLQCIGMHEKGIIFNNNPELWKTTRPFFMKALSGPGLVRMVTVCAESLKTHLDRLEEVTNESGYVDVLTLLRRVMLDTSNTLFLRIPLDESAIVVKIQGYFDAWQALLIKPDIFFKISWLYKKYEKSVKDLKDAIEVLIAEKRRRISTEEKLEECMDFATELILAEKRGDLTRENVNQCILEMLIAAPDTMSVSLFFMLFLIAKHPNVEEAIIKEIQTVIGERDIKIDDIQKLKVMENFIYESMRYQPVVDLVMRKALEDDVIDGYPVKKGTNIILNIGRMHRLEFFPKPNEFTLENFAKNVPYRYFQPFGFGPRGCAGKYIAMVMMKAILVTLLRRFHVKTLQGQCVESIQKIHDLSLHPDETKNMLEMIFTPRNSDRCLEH

[2] = molecular target: T1, Cytochrome P450 11B2, mitochondrial
Description: Inhibition of human CYP11B2 expressed in hamster V79MZ cells using [3H]-11-deoxycorticosterone as substrate after 1 hr by HPLC analysis

[3] = molecular target: T4, Cytochrome P450 11B1, mitochondrial (Homo sapiens, UniProt P15538)
T4 sequence (P15538 whole entry): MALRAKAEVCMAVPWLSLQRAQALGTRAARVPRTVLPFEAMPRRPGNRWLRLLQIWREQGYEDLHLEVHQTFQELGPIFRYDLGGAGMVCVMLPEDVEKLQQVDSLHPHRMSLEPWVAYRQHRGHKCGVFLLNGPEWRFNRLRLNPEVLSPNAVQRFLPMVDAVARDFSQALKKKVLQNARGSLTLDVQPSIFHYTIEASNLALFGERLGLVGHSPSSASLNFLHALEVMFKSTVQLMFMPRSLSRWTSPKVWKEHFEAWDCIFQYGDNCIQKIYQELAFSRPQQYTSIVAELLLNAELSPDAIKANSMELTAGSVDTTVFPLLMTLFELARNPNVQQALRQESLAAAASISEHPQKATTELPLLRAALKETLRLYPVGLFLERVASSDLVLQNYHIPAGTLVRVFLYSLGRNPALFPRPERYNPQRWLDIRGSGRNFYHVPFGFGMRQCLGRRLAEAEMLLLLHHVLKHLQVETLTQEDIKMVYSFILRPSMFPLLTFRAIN
Description: Inhibition of human CYP11B1 expressed in hamster V79MZ cells using [3H]-11-deoxycorticosterone as substrate after 1 hr by HPLC analysis

[4] = Cmax in Wistar rat at 1 mg/kg, po after 0.5 hrs by HPLC-MS/MS analysis; format: ADME, organism-based; set-up: dose 1 mg/kg, route oral; settings: in vivo
[5] = Terminal half life in Wistar rat at 1 mg/kg, iv by HPLC-MS/MS analysis; format: ADME, organism-based; set-up: dose 1 mg/kg, route intravenous; settings: in vivo, read-out: beta t1/2 (converted)
[6] = Terminal half life in Wistar rat at 1 mg/kg, po by HPLC-MS/MS analysis; format: ADME, organism-based; set-up: dose 1 mg/kg, route oral; settings: in vivo, read-out: beta t1/2 (converted)
[7] = AUC in Wistar rat at 1 mg/kg, iv by HPLC-MS/MS analysis; format: ADME, organism-based; set-up: dose 1 mg/kg, route intravenous; settings: plasma
[8] = AUC in Wistar rat at 1 mg/kg, po by HPLC-MS/MS analysis; format: ADME, organism-based; set-up: dose 1 mg/kg, route oral; settings: plasma
[9] = Oral bioavailability in Wistar rat at 1 mg/kg by HPLC-MS/MS analysis; format: ADME, organism-based; settings: in vivo

SMILES | inhibition [1] | Ratio IC50 (V79MZ) | inhibition at 2 µM (CYP17) | inhibition at 0.5 µM (CYP19 (aromatase)) | IC50 [2] | IC50 [3] | Cmax [4] | half-life [5] | half-life [6] | AUC [7] | AUC [8] | bioavailability [9]
[O-][S+](c1ccccc1C(F)(F)F)c1c(O)c(-c2cccnc2)cc2ccccc12 (stereo unspecified) | 86% | 96 | < 5% | < 5% | 0.053 µM | 5.08 µM | – | – | – | – | – | –
[O-][S+](c1ccccc1)c1c(O)c(-c2cccnc2)cc2ccccc12 (stereo unspecified) | 85% | 203 | < 5% | < 5% | 0.033 µM | 6.71 µM | – | – | – | – | – | –
[O-][S+](c1cccc(Cl)c1)c1c(O)c(-c2cccnc2)cc2ccccc12 (stereo unspecified) | 90% | 80 | < 5% | < 5% | 0.06 µM | 4.8 µM | – | – | – | – | – | –
Oc1c(-c2cccnc2)cc2ccccc2c1Sc1ccccc1 | 22% | – | – | – | – | – | – | – | – | – | – | –
[O-][S+](c1cccc(C(F)(F)F)c1)c1c(O)c(-c2cccnc2)cc2ccccc12 (stereo unspecified) | 88% | 155 | < 5% | < 5% | 0.043 µM | 6.67 µM | – | – | – | – | – | –
[O-][S+](c1ccccc1)c1cc(-c2cccnc2)cc2ccccc12 (stereo unspecified) | 33% | – | – | – | – | – | – | – | – | – | – | –
[O-][S+](c1ccc(F)c(Cl)c1)c1c(O)c(-c2cccnc2)cc2ccccc12 (stereo unspecified) | 91% | 123 | < 5% | < 5% | 0.053 µM | 6.53 µM | – | – | – | – | – | –
N#Cc1cccc([S+]([O-])c2c(O)c(-c3cccnc3)cc3ccccc23)c1 (stereo unspecified) | 84% | 186 | < 5% | < 5% | 0.046 µM | 8.55 µM | – | – | – | – | – | –
COc1ccc([S+]([O-])c2c(O)c(-c3cccnc3)cc3ccccc23)cc1 (stereo unspecified) | 80% | 87 | < 5% | < 5% | 0.048 µM | 4.2 µM | – | – | – | – | – | –
[O-][S+](c1cccs1)c1c(O)c(-c2cccnc2)cc2ccccc12 (stereo unspecified) | 79% | 32 | < 5% | < 5% | 0.192 µM | 6.16 µM | – | – | – | – | – | –
COc1ccc(Sc2c(O)c(-c3cccnc3)cc3ccccc23)cc1 | 22% | – | – | – | – | – | – | – | – | – | – | –
[O-][S+](c1ccc(C(F)(F)F)cc1)c1c(O)c(-c2cccnc2)cc2ccccc12 (stereo unspecified) | 81% | 248 | < 5% | < 5% | 0.025 µM | 6.19 µM | – | – | – | – | – | –
[O-][S+](c1ccc(OC(F)(F)F)cc1)c1c(O)c(-c2cccnc2)cc2ccccc12 (stereo unspecified) | 88% | 232 | < 5% | < 5% | 0.032 µM | 7.43 µM | – | – | – | – | – | –
[O-][S+](c1cccc(OC(F)(F)F)c1)c1c(O)c(-c2cccnc2)cc2ccccc12 (stereo unspecified) | 83% | 415 | < 5% | < 5% | 0.014 µM | 5.81 µM | 40.4 ng/mL | 4 h | 7 h | 1780 ng·h/mL | 335 ng·h/mL | 19%
[O-][S+](c1ccc(F)cc1)c1c(O)c(-c2cccnc2)cc2ccccc12 (stereo unspecified) | 84% | 168 | < 5% | < 5% | 0.033 µM | 5.55 µM | – | – | – | – | – | –
